Source: ChEMBL document CHEMBL1201862, “PubChem BioAssay data set” (2004)
The source made the active and inactive calls.

Tests used:
[1] = biological target: T1, Carboxy-terminal domain RNA polymerase II polypeptide A small phosphatase 1 (Homo sapiens, UniProt Q9GZU7); assay: CTDSP1 inhibitors, concentration-response, biochemical, absorbance readout, ultra-high-throughput screen actives (AID 540297); assay type: functional
T1 sequence (Q9GZU7 whole entry): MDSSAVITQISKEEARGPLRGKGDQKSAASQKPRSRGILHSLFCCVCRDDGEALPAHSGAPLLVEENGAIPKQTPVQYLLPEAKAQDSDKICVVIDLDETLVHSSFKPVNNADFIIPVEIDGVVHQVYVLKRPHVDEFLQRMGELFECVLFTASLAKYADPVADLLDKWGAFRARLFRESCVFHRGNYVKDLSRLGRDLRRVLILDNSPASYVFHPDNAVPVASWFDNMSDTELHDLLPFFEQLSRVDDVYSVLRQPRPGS

[2] = biological target: T2, Endoribonuclease toxin MazF (Escherichia coli K-12, UniProt P0AE70); assay: substrate-only fluorescence increase artefacts – biochemical, single-stranded RNase substrate, counter-screen for MazEF activator project, dose response (AID 588502); assay type: functional
T2 sequence (P0AE70 whole entry): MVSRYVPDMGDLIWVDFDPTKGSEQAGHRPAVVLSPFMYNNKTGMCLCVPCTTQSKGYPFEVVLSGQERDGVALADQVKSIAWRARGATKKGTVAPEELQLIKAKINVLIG

[3] = biological target: T2, Endoribonuclease toxin MazF; assay: activation of MazEF endoribonuclease cleavage – biochemical, fluorescence, single-stranded RNA substrate, uHTS hits, dose response (AID 588481); assay type: functional
[4] = A549 cell cytotoxicity, dose response, cytotoxicity control, plate reader, cherry-pick, antagonist series (AID 743412); assay type: functional, cell-based
[5] = blockade of melanocortin 4 receptor signaling – cell-based, plate reader, cherry pick, counter-screen for LGR2 antagonist project, dose response (AID 743444); assay type: functional;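 also: transfected HEK 293 cells stimulated with alpha-MSH peptide; potency of inhibitors of the alpha-MSH evoked signal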
[6] = viability loss in HEK293 cells – cell-based, plate reader, cherry-picked samples, cytotoxicity control, dose response (AID 743446); assay type: functional
[7] = toxicity toward HepG2 liver cells – cell-based, plate reader, cherry-pick, antagonist series, cytotoxicity control, dose response (AID 743416); assay type: functional
[8] = blockers of bursicon-stimulated LGR2 cAMP reporter – cell-based, HEK293, CRE-luciferase reporter, cherry pick, set 2, dose response (AID 743343); assay type: functional;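 also: transfected cells were stimulated with diluted bursicon conditioned medium after compound addition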
Aminopeptidase N = biological target: T3, Aminopeptidase N (Plasmodium falciparum FcB1/Columbia, UniProt O96935); assay: malaria alanyl aminopeptidase activity blockers – biochemical, fluorogenic H-Leu-NHMec substrate, 1536-well (AID 1445); parameters: species or system Plasmodium falciparum 3D7, 3D7
T3 sequence (O96935 whole entry): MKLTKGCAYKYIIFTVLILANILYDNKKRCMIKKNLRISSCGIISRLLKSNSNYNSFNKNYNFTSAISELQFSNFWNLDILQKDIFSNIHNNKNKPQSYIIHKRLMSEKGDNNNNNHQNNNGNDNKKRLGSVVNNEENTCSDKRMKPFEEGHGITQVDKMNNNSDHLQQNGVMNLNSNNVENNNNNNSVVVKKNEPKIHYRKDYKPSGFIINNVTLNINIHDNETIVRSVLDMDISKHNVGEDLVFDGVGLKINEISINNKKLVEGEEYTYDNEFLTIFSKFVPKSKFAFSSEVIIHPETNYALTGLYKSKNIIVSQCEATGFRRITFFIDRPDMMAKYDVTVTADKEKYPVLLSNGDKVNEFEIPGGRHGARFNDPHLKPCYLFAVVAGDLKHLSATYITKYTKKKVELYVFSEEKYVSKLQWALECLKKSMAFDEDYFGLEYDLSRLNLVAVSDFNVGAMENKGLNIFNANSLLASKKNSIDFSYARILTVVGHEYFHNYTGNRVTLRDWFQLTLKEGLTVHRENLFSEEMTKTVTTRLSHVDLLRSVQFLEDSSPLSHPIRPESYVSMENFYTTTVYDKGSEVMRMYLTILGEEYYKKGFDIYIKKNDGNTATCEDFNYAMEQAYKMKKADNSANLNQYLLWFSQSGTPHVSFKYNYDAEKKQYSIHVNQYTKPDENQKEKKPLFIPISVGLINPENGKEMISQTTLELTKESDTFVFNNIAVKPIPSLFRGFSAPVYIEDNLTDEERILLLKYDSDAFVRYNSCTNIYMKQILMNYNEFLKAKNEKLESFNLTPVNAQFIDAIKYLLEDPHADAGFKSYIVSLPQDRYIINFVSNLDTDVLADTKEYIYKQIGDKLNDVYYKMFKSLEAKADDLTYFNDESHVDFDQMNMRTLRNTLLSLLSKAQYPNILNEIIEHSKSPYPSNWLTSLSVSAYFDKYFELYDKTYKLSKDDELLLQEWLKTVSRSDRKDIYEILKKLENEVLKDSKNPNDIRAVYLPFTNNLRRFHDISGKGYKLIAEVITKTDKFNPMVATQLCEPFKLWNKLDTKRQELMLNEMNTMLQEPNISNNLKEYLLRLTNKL

[9] = HIV-1 Vif–A3G interaction blockers – biochemical, TR-FRET, GST-Vif 1-94, biotin-A3G peptide, dose response retest, primary screen (AID 1117319); assay type: functional;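 also: TR-FRET signal of purified GST-Vif binding a biotinylated A3G peptide; inhibitors lower the FRET signal by blocking Vif and A3G binding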
[10] = toxicity to human hepatoma HepG2 cells – cell-based, cherry-picked samples, cytotoxicity control, dose response (AID 1159577); assay type: functional
[11] = P. falciparum Dd2 growth inhibitors, dose response, SYBR Green, cherry-picked samples (AID 1159567); assay type: functional, cell-based

Cc1ccc(C=C2C(=O)c3ccccc3C2=O)o1
IC50 [1]: 6.25 µM (active)
EC50 [2]: 85.2 µM (inactive)
EC50 [3]: > 99 µM (inactive)

COc1ccc2oc(C(=O)N3CCc4ccccc43)c(C)c2c1
AC50 [4]: 20 µM (active)
AC50 [5]: 6.24 µM (active)
AC50 [6]: 33.9 µM (active)
AC50 [7]: 21.5 µM (active)
AC50 [8]: 7.5 µM (active)

O=C(CSc1nc2c(c(=O)n1-c1ccc(Cl)cc1)SCC2)NCC1CCCO1 (stereo not given)
IC50 (Aminopeptidase N): 58.3 µM (active)

COCCN(Cc1cc2ccccc2nc1O)C(=O)c1ccccc1OC
IC50 [9]: > 100 µM (active)

COc1ccc(CCN2C(=O)c3cccc4c(C(=O)N5CCCCC5)ccc(c34)C2=O)cc1OC
AC50 [4]: > 52 µM (inactive)
AC50 [5]: 18 µM (active)
AC50 [6]: 16.7 µM (active)
AC50 [7]: > 52 µM (inactive)
AC50 [8]: 21.6 µM (active)

Nc1c(C(=O)C2CC2)sc2nc(-c3cccs3)cc(C(F)(F)F)c12
EC50 [2]: 10.6 µM (active)
EC50 [3]: > 99 µM (inactive)

Cc1ccc(/C=C2\SC(=S)N(CCC(=O)Nc3cccnc3)C2=O)cc1
EC50 [2]: > 99 µM (inactive)
EC50 [3]: > 99 µM (inactive)

O=S(=O)(c1ccccc1F)N1C[C@@H]2N[C@H](C1)[C@H]2c1ccc(/C=C/c2ccccc2)cc1
AC50 [10]: 16.1 µM (active)
AC50 [11]: 3.4 µM (active)

N#C[C@@H]1[C@H](c2ccccc2-c2cccc(F)c2)[C@H](CO)N1C(=O)NC1CCCC1
AC50 [10]: > 39 µM (inactive)
AC50 [11]: 6.42 µM (active)

C[C@@H]1CN([C@@H](C)CO)S(=O)(=O)c2ccc(/C=C/c3ccccc3)cc2O[C@H]1CN(C)Cc1cncnc1
AC50 [10]: > 39 µM (inactive)
AC50 [11]: 5.17 µM (active)
